ChEMBL document CHEMBL1201862, “PubChem BioAssay data set” (2004)
Where “and” joins values, the source holds several entries; their conditions need not be identical. Identical values can stand only once.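 Values below derive from 48-hour exposures of cells grown in 96-well plates, with endpoints linearly interpolated between the two concentrations bracketing the appropriate inhibition level. GI50 = concentration required for 50% inhibition of growth.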 Calls of active or inactive are those of the source. Rule as the data show it: active = GI50 up to about 1.1 µM and inactive = higher.

Assays:
Assay in all cases: NCI anticancer screen, dose series, 48 h
CCRF-CEM = system: CCRF-CEM
HCT-116 = system: HCT-116
K562 = system: K562
MCF7 = system: MCF7
MOLT-4 = system: MOLT-4
OVCAR-4 = system: OVCAR-4
OVCAR-5 = system: OVCAR-5
OVCAR-8 = system: OVCAR-8
SF-539 = system: SF-539
SK-MEL-2 = system: SK-MEL-2
SNB-19 = system: SNB-19
UACC-62 = system: UACC-62
LOX IMVI = system: LOX IMVI
NCI/ADR-RES = system: NCI/ADR-RES
SK-MEL-28 = system: SK-MEL-28
TK-10 = system: TK-10
UO-31 = system: UO-31
SF-268 = system: SF-268
T47D = system: T47D

| Compound | GI50 (CCRF-CEM) | GI50 (HCT-116) | GI50 (K562) | GI50 (MCF7) | GI50 (MOLT-4) | GI50 (OVCAR-4) | GI50 (OVCAR-5) | GI50 (OVCAR-8) | GI50 (SF-539) | GI50 (SK-MEL-2) | GI50 (SNB-19) | GI50 (UACC-62) | GI50 (LOX IMVI) | GI50 (NCI/ADR-RES) | GI50 (SK-MEL-28) | GI50 (TK-10) | GI50 (UO-31) | GI50 (SF-268) | GI50 (T47D) |
| --- | --- | --- | --- | --- | --- | --- | --- | --- | --- | --- | --- | --- | --- | --- | --- | --- | --- | --- | --- |
| Cc1cn(C2CC(N(O)Cc3ccccc3)C(CO[Si](C)(C)C(C)(C)C)O2)c(=O)[nH]c1=O (stereo not drawn) | 30.1 µM (inactive) | 16.2 µM (inactive) and 19.1 µM (inactive) | 24.4 µM (inactive) and 27 µM (inactive) | 19.6 µM (inactive) and 30.9 µM (inactive) | 40.2 µM (inactive) and 57.3 µM (inactive) | 23.7 µM (inactive) and 17.4 µM (inactive) | 18.6 µM (inactive) and 19.7 µM (inactive) | 17.8 µM (inactive) and 25.7 µM (inactive) | 15.5 µM (inactive) and 18.1 µM (inactive) | 20.3 µM (inactive) | 18.6 µM (inactive) and 34.9 µM (inactive) | 12.2 µM (inactive) and 16.4 µM (inactive) |  |  |  |  |  |  |  |
| COC(=O)[C@]12CC3C=CC1N(C3)C(CBr)c1c2n(S(=O)(=O)c2ccccc2)c2ccccc12 (stereo partly drawn) | 47.6 µM (inactive) | 47.9 µM (inactive) | 0.118 µM (active) | 46.9 µM (inactive) |  | 38.5 µM (inactive) | > 100 µM (inactive) | 49 µM (inactive) |  | 79.4 µM (inactive) |  | 57.3 µM (inactive) | 43.4 µM (inactive) | > 100 µM (inactive) | > 100 µM (inactive) | > 100 µM (inactive) | > 100 µM (inactive) |  |  |
| C=CCOCn1ccc(NC(=O)c2ccccc2)nc1=O | > 100 µM (inactive) | > 100 µM (inactive) | > 100 µM (inactive) | > 100 µM (inactive) | > 100 µM (inactive) |  |  | > 100 µM (inactive) | > 100 µM (inactive) |  | > 100 µM (inactive) | > 100 µM (inactive) | > 100 µM (inactive) |  | > 100 µM (inactive) | > 100 µM (inactive) | > 100 µM (inactive) | > 100 µM (inactive) | > 100 µM (inactive) |
| COC(=O)C1=Cc2cc(OC)c(O)cc2[C@@H](c2ccc(O)c(OC)c2)[C@@H]1C(=O)OC | > 100 µM (inactive) | > 100 µM (inactive) | 57.3 µM (inactive) | > 100 µM (inactive) | > 100 µM (inactive) |  | > 100 µM (inactive) | > 100 µM (inactive) | > 100 µM (inactive) |  | > 100 µM (inactive) |  | > 100 µM (inactive) | > 100 µM (inactive) | > 100 µM (inactive) |  | 10.5 µM (inactive) | > 100 µM (inactive) | 60.5 µM (inactive) |
| COc1cc2c(c3c1c(=O)c1ccccc1n3C)C=CC1(CCCC1)O2 | 9.82 µM (inactive) | 15.1 µM (inactive) | 7.5 µM (inactive) | 16 µM (inactive) | 26.2 µM (inactive) | 12.2 µM (inactive) | 12.9 µM (inactive) | 18.4 µM (inactive) | 4.16 µM (inactive) | 14 µM (inactive) | 18.5 µM (inactive) | 13.1 µM (inactive) | 1.02 µM (active) | 23.7 µM (inactive) | 13.9 µM (inactive) | 15.6 µM (inactive) |  | 18.8 µM (inactive) |  |
| OCCCN(CCc1ccc(Cl)c(Cl)c1)CCN1CCCC1 | 30 µM (inactive) | 47.9 µM (inactive) | 19.5 µM (inactive) | 27.4 µM (inactive) | 39.2 µM (inactive) | > 100 µM (inactive) | 31.4 µM (inactive) | > 100 µM (inactive) |  | 18.9 µM (inactive) | 68.4 µM (inactive) | 16.9 µM (inactive) | 35.9 µM (inactive) | 81.5 µM (inactive) |  | 40.6 µM (inactive) | 50.2 µM (inactive) | 48 µM (inactive) | 33.1 µM (inactive) |
| Oc1cc(-c2c[nH]c3ccccc23)nc2cc3c(cc12)OCO3 | > 100 µM (inactive) | > 100 µM (inactive) | > 100 µM (inactive) |  | > 100 µM (inactive) | 3.79 µM (inactive) |  | > 10 µM (inactive) | > 100 µM (inactive) | > 100 µM (inactive) | > 100 µM (inactive) | 66.8 µM (inactive) | > 100 µM (inactive) |  | > 100 µM (inactive) | > 100 µM (inactive) | > 100 µM (inactive) | > 100 µM (inactive) |  |
| O=c1oc2c/c(=C\c3ccc([N+](=O)[O-])cc3)c(=O)c3cccc1c3-2 | 36.8 µM (inactive) | > 100 µM (inactive) | > 100 µM (inactive) | > 100 µM (inactive) | > 100 µM (inactive) |  | > 100 µM (inactive) | 30.8 µM (inactive) |  | > 100 µM (inactive) | > 100 µM (inactive) | > 100 µM (inactive) | 35.2 µM (inactive) | > 100 µM (inactive) | > 100 µM (inactive) | 21.9 µM (inactive) | > 100 µM (inactive) | 39.8 µM (inactive) | > 100 µM (inactive) |
| COc1ccc([C@]23CCN(S(=O)(=O)c4ccc(C)cc4)[C@H]2[C@H](CO)C2(CC3)OCC(C)(C)CO2)cc1OC | > 100 µM (inactive) | > 100 µM (inactive) | > 100 µM (inactive) | > 100 µM (inactive) | > 100 µM (inactive) | > 100 µM (inactive) | > 100 µM (inactive) | > 100 µM (inactive) |  | > 100 µM (inactive) | > 100 µM (inactive) | > 100 µM (inactive) | > 100 µM (inactive) | > 100 µM (inactive) | > 100 µM (inactive) | > 100 µM (inactive) | > 100 µM (inactive) |  | > 100 µM (inactive) |
| COc1cc2c(c(O)c1OC)-c1c(cc(OC)c(OC)c1OC)CC(C)C(C)C2 (stereo not drawn) [GOMISIN K3] | 23.4 µM (inactive) | 34.7 µM (inactive) | 38.8 µM (inactive) | 33 µM (inactive) | 16.6 µM (inactive) | 30.3 µM (inactive) | > 100 µM (inactive) | 51.9 µM (inactive) | 66.1 µM (inactive) | 45.2 µM (inactive) | 60.8 µM (inactive) | 43.1 µM (inactive) | 49.9 µM (inactive) |  | 67.1 µM (inactive) | 26.5 µM (inactive) | 29.4 µM (inactive) | 78 µM (inactive) | 30.4 µM (inactive) |
| O=C1c2ccccc2C(=O)c2c(NCCCN3CCOCC3)ccc(NCCCN3CCOCC3)c21 | 2.59 µM (inactive) | 1.23 µM (inactive) | 2.16 µM (inactive) | 5.9 µM (inactive) | 1.09 µM (active) | 2.67 µM (inactive) | 9.42 µM (inactive) | 1.9 µM (inactive) | 1.82 µM (inactive) | 8.24 µM (inactive) | 5.3 µM (inactive) | 2.03 µM (inactive) | 1.54 µM (inactive) |  | 5.79 µM (inactive) | 12.9 µM (inactive) | 3.01 µM (inactive) | 2.75 µM (inactive) | 29.3 µM (inactive) |
| Cc1ccc(-n2cc(-c3ccc(Cl)cc3)c3c(=N)n(N)cnc32)cc1 | 11.3 µM (inactive) | 7.8 µM (inactive) | 6.46 µM (inactive) | 11 µM (inactive) |  | 10.5 µM (inactive) | 14.7 µM (inactive) | 14.8 µM (inactive) | 13.4 µM (inactive) | 13.6 µM (inactive) | 11.8 µM (inactive) | 13.2 µM (inactive) | 14.7 µM (inactive) | 13.1 µM (inactive) | 13.8 µM (inactive) | 15.3 µM (inactive) | 11.7 µM (inactive) | 12.7 µM (inactive) |  |
| Cc1cc(NS(=O)(=O)c2ccc(NO)cc2)no1 | 8.65 µM (inactive) | 28.5 µM (inactive) | 14.7 µM (inactive) | 22 µM (inactive) | 43 µM (inactive) | 67.3 µM (inactive) | > 100 µM (inactive) | 41.1 µM (inactive) | 35.1 µM (inactive) | > 100 µM (inactive) | > 100 µM (inactive) | 56.6 µM (inactive) | 17.9 µM (inactive) | 39.5 µM (inactive) | > 100 µM (inactive) | > 100 µM (inactive) | > 100 µM (inactive) | > 100 µM (inactive) |  |
| COc1ccc(N2C=Nn3c(nc4sc(C)c(C)c4c3=O)C2)cc1 | > 100 µM (inactive) | > 100 µM (inactive) | > 100 µM (inactive) | > 100 µM (inactive) | > 100 µM (inactive) | > 100 µM (inactive) | > 100 µM (inactive) | > 100 µM (inactive) |  | > 100 µM (inactive) | > 100 µM (inactive) | > 100 µM (inactive) | > 100 µM (inactive) | > 100 µM (inactive) | > 100 µM (inactive) | > 100 µM (inactive) | > 100 µM (inactive) | > 100 µM (inactive) | > 100 µM (inactive) |
| NNC1=Nc2ccc(Cl)cc2C(=S)N2CSCC12 (stereo not drawn) | > 100 µM (inactive) | > 100 µM (inactive) | > 100 µM (inactive) | > 100 µM (inactive) | > 100 µM (inactive) | > 100 µM (inactive) | > 100 µM (inactive) | > 100 µM (inactive) |  | > 100 µM (inactive) | > 100 µM (inactive) | > 100 µM (inactive) | > 100 µM (inactive) | > 100 µM (inactive) | > 100 µM (inactive) | > 100 µM (inactive) | > 100 µM (inactive) | > 100 µM (inactive) | > 100 µM (inactive) |
| COc1ccc(/N=N/N2CCCC2)cc1 | 16.7 µM (inactive) | 20.1 µM (inactive) | 31.4 µM (inactive) | 30.8 µM (inactive) | 26.9 µM (inactive) | 18.6 µM (inactive) | 83.9 µM (inactive) |  | 29.8 µM (inactive) | > 100 µM (inactive) | > 100 µM (inactive) | 30.9 µM (inactive) | 16.1 µM (inactive) |  | 44.2 µM (inactive) | 57.1 µM (inactive) | 31.9 µM (inactive) | 31.8 µM (inactive) | 18.3 µM (inactive) |
